Values after ≈ are worked out from the molar mass of the structure shown. Active and inactive are the calls of the source. The rule behind the calls is not given here.
Key:
Candida albicans [1] = assay: Antifungal activity against FLC resistant Candida albicans 0304103 at 32 ug/ml up to 24 hrs in presence of fluconazol by checkerboard microdilution method; type: functional, organism-based
[2] = target: Histone deacetylase 3/NCoR1 (Homo sapiens, UniProt O15379); assay: Inhibition of human recombinant HDAC3/GST-tagged NCOR1 (397 to 503 residues) co-expressed in insect cells using (Ac-Leu-Gly-Lys(Ac)-AMC as substrate preincubated for 5 mins followed by substrate addition and measured after 30 mins by fluorescence assay
Candida albicans [3] = assay: microbe, parasite or virus in culture; type: functional; settings: Candida albicans, 100, 48 h
Description: Antifungal activity against FLC resistant Candida albicans 100 assessed as fluconazol MIC50 after 48 hrs by checkerboard microdilution method

HEL [4] = assay: Antiproliferative activity against human HEL cells after 48 hrs by CCK-8 assay; type: functional, cell-based
Candida albicans [5] = assay: microbe, parasite or virus in culture; type: functional; settings: Candida albicans, 0304103, 48 h
Description: Antifungal activity against FLC resistant Candida albicans 0304103 after 48 hrs by checkerboard microdilution method

Histone deacetylase 1 = Histone deacetylase 1 (Homo sapiens, UniProt Q13547); assay: Inhibition of full length human recombinant HDAC1 expressed in baculovirus expression system using (Ac-Leu-Gly-Lys(Ac)-AMC as substrate preincubated for 5 mins followed by substrate addition and measured after 30 mins by fluorescence assay
Candida albicans [6] = assay: Synergistic antifungal activity against FLC resistant Candida albicans 0304103 assessed as FIC index after 48 hrs by checkerboard microdilution method; type: functional
Candida albicans [7] = assay: Synergistic antifungal activity against FLC resistant Candida albicans 100 assessed as FIC index after 48 hrs by checkerboard microdilution method; type: functional
[8] = target: Tyrosine-protein kinase JAK1 (Homo sapiens, UniProt P23458); assay: Inhibition of JAK1 (unknown origin) using FAM-labeled peptide as substrate preincubated for 10 mins followed by substrate addition and measured after 25 mins in presence of ATP
[9] = target: Histone deacetylase (Homo sapiens) (UniProt Q13547+O15379+Q9UBN7+Q92769+Q9UQL6+Q8WUI4+Q9BY41+Q96DB2+P56524+Q9UKV0+Q969S8); assay: Inhibition of HDAC in human HEL cells assessed as increased in histone H4 acetylation after 24 hrs by Western blot analysis; type: cell-based
[10] = target: T1, Protein deacetylase HDAC6 (Homo sapiens, UniProt Q9UBN7); assay: Inhibition of full length human recombinant HDAC6 expressed in Baculovirus infected Sf9 cells using (Ac-Leu-Gly-Lys(Ac)-AMC as substrate preincubated for 5 mins followed by substrate addition and measured after 30 mins by fluorescence assay
T1 sequence (Q9UBN7 whole entry): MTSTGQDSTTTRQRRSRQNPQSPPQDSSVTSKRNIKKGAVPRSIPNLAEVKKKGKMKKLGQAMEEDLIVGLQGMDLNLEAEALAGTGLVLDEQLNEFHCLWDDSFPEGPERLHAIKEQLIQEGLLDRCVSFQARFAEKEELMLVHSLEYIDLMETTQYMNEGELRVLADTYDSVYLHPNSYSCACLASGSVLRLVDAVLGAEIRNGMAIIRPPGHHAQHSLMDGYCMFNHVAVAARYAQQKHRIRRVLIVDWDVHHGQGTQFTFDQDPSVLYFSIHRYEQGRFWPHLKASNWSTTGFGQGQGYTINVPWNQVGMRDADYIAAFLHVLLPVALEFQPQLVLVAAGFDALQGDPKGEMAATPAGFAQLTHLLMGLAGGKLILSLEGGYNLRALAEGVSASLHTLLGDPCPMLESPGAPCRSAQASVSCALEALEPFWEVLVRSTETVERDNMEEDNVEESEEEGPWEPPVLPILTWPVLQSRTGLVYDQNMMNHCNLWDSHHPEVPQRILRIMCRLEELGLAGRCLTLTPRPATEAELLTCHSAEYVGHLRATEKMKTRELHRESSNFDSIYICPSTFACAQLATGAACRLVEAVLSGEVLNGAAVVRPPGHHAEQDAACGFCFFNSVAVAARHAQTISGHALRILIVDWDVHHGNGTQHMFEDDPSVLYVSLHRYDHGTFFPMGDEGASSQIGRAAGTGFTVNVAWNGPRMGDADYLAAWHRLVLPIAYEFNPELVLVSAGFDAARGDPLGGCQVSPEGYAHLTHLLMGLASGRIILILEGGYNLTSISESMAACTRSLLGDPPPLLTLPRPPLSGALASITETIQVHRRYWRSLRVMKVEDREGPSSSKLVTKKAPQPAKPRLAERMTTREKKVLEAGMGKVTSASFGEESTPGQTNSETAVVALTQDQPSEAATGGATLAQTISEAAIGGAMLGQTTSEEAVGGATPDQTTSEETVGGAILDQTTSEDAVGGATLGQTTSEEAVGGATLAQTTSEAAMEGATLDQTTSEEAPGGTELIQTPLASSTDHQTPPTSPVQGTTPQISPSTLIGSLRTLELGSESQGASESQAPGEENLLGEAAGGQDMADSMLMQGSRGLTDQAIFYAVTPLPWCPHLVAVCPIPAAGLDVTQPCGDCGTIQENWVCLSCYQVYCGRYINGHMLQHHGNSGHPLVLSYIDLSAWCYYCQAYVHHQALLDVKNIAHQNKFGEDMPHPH

Histone deacetylase 2 = Histone deacetylase 2 (Homo sapiens, UniProt Q92769); assay: Inhibition of recombinant HDAC2 (unknown origin) using (Ac-Leu-Gly-Lys(Ac)-AMC as substrate preincubated for 5 mins followed by substrate addition and measured after 30 mins by fluorescence assay
[11] = Half life in ICR mouse liver microsomes at 1 uM measured up to 45 mins in presence of NADPH by LC-MS/MS analysis; type: ADME, microsome
HEL [12] = assay: Induction of apoptosis in human HEL cells after 48 hrs by Annexin-V-FITC/propidium iodide staining based flow cytometry; type: functional, cell-based
Candida albicans [13] = assay: microbe, parasite or virus in culture; type: functional; settings: Candida albicans, 0304103, 48 h; remark: listed apart in the source
Description: Antifungal activity against FLC resistant Candida albicans 0304103 after 48 hrs in presence of fluconazol by checkerboard microdilution method

Mus musculus [14] = assay: Toxicity in BALB/C nude mouse xenografted with human HEL cells assessed as reduction in body weight at 10 mg/kg, ip bid treated for 21 consecutive days; type: organism-based; settings: in vivo
[15] = target: Non-receptor tyrosine-protein kinase TYK2 (Homo sapiens, UniProt P29597); assay: Inhibition of TYK2 (unknown origin) using FAM-labeled peptide as substrate preincubated for 10 mins followed by substrate addition and measured after 25 mins in presence of ATP
HEL [16] = assay: Induction of apoptosis in human HEL cells at 10 uM after 48 hrs by Annexin-V-FITC/propidium iodide staining based flow cytometry relative to control; type: functional
Candida albicans [17] = assay: microbe, parasite or virus in culture; type: functional; settings: Candida albicans, 0304103, 48 h; remark: listed apart in the source
Description: Antifungal activity against FLC resistant Candida albicans 0304103 assessed as fluconazol MIC50 after 48 hrs by checkerboard microdilution method

Candida albicans [18] = assay: microbe, parasite or virus in culture; type: functional; settings: Candida albicans, 0710922, 48 h
Description: Antifungal activity against FLC resistant Candida albicans 0710922 assessed as fluconazol MIC50 after 48 hrs by checkerboard microdilution method

HL-60 = assay: Antiproliferative activity against human HL60 cells after 48 hrs by CCK-8 assay; type: functional, cell-based; settings: HL-60, 48 h
Candida albicans [19] = assay: Antifungal activity against FLC resistant Candida albicans 100 after 48 hrs by checkerboard microdilution method; type: functional; settings: Candida albicans, 100, 48 h
[20] = Clearance in ICR mouse liver microsomes at 1 uM measured up to 45 mins in presence of NADPH by LC-MS/MS analysis; type: ADME, microsome; settings: 0.75 h
Mus musculus [21] = assay: Protection against spleen enlargement in SCID mouse xenografted with human HEL cells at 10 mg/kg, ip qd; type: functional, organism-based

Chain of Non-receptor tyrosine-protein kinase TYK2 (P29597 whole entry): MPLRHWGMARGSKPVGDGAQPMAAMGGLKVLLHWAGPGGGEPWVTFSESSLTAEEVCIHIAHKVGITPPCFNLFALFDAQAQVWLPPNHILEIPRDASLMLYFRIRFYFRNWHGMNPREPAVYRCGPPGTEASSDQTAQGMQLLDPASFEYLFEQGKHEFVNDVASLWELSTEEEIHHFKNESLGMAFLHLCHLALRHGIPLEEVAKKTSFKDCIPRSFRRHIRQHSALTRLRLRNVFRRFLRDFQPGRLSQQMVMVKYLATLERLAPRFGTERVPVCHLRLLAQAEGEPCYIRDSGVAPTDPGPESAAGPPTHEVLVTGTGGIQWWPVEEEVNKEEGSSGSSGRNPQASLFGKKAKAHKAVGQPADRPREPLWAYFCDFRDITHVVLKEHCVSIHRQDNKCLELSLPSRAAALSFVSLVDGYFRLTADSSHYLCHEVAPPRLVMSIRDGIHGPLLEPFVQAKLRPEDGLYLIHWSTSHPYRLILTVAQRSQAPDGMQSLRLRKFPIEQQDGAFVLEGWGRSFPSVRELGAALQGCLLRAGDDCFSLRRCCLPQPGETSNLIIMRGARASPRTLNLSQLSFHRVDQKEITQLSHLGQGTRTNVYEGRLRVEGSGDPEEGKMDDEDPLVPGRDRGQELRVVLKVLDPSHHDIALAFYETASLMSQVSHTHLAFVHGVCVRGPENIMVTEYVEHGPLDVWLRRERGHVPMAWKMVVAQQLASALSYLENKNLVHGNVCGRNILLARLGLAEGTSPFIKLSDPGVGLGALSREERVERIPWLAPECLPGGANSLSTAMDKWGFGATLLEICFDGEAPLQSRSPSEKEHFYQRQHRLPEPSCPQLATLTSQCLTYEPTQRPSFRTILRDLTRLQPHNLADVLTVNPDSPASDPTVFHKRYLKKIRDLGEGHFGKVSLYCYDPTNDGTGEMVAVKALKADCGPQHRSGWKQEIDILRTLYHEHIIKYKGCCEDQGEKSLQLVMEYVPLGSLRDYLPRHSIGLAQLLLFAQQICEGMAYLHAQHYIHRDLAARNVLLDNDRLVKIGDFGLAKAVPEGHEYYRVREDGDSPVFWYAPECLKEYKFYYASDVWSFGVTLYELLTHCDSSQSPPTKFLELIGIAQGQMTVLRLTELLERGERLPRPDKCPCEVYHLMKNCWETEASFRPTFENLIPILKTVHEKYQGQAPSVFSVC
Chain of Histone deacetylase 2 (Q92769 whole entry): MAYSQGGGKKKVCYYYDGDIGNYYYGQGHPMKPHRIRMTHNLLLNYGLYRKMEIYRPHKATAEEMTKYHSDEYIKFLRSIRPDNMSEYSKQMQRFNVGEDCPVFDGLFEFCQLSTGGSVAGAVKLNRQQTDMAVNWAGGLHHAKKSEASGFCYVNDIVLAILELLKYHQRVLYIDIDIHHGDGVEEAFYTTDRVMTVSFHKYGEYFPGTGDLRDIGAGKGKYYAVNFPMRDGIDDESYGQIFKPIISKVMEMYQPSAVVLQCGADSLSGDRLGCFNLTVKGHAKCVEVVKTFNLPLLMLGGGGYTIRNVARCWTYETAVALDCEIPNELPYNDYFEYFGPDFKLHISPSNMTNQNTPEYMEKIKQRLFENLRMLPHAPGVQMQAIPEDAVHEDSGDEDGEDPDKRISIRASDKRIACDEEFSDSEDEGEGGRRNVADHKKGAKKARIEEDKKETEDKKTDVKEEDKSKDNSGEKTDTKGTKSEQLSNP
Chain of Histone deacetylase 1 (Q13547 whole entry): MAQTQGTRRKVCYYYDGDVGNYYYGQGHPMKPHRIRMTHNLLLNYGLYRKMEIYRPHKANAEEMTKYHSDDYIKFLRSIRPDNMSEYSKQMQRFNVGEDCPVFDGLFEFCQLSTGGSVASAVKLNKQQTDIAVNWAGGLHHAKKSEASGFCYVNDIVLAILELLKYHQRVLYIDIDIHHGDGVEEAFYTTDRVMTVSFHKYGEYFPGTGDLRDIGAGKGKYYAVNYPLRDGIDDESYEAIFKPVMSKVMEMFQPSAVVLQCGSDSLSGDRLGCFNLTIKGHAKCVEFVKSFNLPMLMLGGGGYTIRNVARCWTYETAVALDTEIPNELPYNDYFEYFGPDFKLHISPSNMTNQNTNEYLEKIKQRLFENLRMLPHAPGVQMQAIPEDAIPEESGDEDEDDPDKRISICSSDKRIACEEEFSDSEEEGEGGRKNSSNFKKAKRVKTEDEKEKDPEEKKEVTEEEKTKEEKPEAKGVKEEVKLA
Chain of Tyrosine-protein kinase JAK1 (P23458 whole entry): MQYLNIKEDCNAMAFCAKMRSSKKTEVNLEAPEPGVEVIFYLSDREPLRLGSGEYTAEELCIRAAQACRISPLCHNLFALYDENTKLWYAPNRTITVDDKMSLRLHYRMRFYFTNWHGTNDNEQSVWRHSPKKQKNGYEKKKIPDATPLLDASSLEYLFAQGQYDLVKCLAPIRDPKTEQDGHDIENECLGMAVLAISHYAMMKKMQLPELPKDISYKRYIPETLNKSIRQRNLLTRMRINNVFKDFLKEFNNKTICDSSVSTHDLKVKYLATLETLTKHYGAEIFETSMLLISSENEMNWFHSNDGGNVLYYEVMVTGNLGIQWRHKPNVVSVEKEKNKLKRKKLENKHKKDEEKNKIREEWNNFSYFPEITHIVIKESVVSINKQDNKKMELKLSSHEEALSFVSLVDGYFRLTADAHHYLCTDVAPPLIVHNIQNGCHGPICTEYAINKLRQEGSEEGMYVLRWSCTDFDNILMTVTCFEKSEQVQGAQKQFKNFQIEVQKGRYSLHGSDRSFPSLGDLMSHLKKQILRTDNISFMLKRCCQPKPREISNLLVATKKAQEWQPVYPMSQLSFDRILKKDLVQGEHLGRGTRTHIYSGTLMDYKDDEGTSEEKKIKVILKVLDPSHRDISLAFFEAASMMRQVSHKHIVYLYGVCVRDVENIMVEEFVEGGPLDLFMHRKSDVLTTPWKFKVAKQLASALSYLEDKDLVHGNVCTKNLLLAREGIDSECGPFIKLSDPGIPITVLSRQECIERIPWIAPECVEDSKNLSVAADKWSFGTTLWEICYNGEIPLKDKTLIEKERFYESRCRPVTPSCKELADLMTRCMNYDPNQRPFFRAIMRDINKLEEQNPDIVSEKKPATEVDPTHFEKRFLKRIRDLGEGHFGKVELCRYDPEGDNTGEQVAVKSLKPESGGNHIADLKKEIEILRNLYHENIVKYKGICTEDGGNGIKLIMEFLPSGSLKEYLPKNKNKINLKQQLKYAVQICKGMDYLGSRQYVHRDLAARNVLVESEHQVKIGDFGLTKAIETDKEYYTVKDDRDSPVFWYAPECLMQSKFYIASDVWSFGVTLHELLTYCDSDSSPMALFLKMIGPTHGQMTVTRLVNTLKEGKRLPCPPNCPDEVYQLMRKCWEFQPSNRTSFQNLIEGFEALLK

Row | Compound | Activity (Candida albicans [1]) | IC50 [2] [nM] | MIC50 (Candida albicans [3]) [µg/mL] | IC50 (HEL [4]) [nM] | MIC50 (Candida albicans [5]) [µg/mL] | IC50 (Histone deacetylase 1) [nM] | fractional inhibitory concentration index (FICI) (Candida albicans [6]) | fractional inhibitory concentration index (FICI) (Candida albicans [7]) | IC50 [8] [nM] | inhibition [9] | IC50 [10] [nM] | IC50 (Histone deacetylase 2) [nM] | half-life at 1 µM [11] [min] | Activity (HEL [12]) | MIC50 (Candida albicans [13]) [µg/mL] | Activity (Mus musculus [14]) | IC50 [15] [nM] | Activity (HEL [16]) [%] | MIC50 (Candida albicans [17]) [µg/mL] | MIC50 (Candida albicans [18]) [µg/mL] | also measured
1 | CS(=O)(=O)Nc1ccc(-c2ccnc(Nc3ccc(N4CCC(C(=O)Nc5ccc(/C=C/C(=O)NO)cc5)CC4)cc3)n2)cc1 | Active | 234 | 0.5 (≈ 0.797 µM) | 340 | > 64 | 250 | 0.07 | 0.07 | 359 | Dose-dependent effect | 46 | 7470 | 19.4 | Dose-dependent effect | 4 (≈ 6.37 µM) | Non-Toxic | 46 | 70.62 | 0.5 (≈ 0.797 µM) | 1 (≈ 1.59 µM) | IC50 (HL-60): 1500 nM; MIC50 (Candida albicans [19]): > 64 µg/mL; CLH [20]: 71.6 µL/min/mg; Activity (Mus musculus [21]): Active
2 | O=C(NO)c1ccc(-c2ccnc(Nc3ccc(N4CCOCC4)cc3)n2)cc1 | Active | 45 | 0.5 (≈ 1.28 µM) | 3500 | > 64 | 160 | 0.07 | 0.13 | 69 | Dose-dependent effect | 419 | 1700 | 16.5 | Dose-dependent effect | 4 (≈ 10.2 µM) | Non-Toxic | 419 | 86.2 | 0.5 (≈ 1.28 µM) | 1 (≈ 2.55 µM) | IC50 (HL-60): 6100 nM; MIC50 (Candida albicans [19]): > 64 µg/mL; CLH [20]: 83.8 µL/min/mg; Activity (Mus musculus [21]): Active
3 | CS(=O)(=O)Nc1ccc(-c2ccnc(Nc3ccc(N4CCC(C(=O)NCCCCCCCC(=O)NO)CC4)cc3)n2)cc1 | Active | 17 | 0.5 (≈ 0.802 µM) | 1800 | > 64 | 18 | 0.13 | 0.13 | 76 | Dose-dependent effect | 74 | 132 | 15.7 | Dose-dependent effect | 8 (≈ 12.8 µM) | Non-Toxic | 74 | 89.2 | 0.25 (≈ 0.401 µM) | 0.25 (≈ 0.401 µM) | IC50 (HL-60): > 50000 nM; MIC50 (Candida albicans [19]): > 64 µg/mL; CLH [20]: 88.1 µL/min/mg; Activity (Mus musculus [21]): Active

— ChEMBL document CHEMBL4145634, “Discovery of Janus Kinase 2 (JAK2) and Histone Deacetylase (HDAC) Dual Inhibitors as a Novel Strategy for the Combinational Treatment of Leukemia and Invasive Fungal Infections” (J Med Chem, 2018)
